Measured values: paper PMC11322497 (Frontiers in Pharmacology, 2024)
Read-outs that look alike come from different tables or passages of the source.

Columns and labels:
[1] = system: high fat diet (HFD) rabbit model of metabolic-associated steatohepatitis (MASH); experiment: HFD rabbit study, acute 5-day treatment at week 12: clinical and biochemical data, tolerability; type: in vivo; details: for ALT / AST / Glycaemia / Liver Weight / MAP / OGTT (iAUC) / Plasma Cholesterol / Plasma Triglycerides: 30 mg/kg p.o. q.d. 5 days, mean ± SD, n = 3
Procedure: A total number of 64 male New Zealand White rabbits (Charles River, Calco, Lecco, Italy), weighing about 3 kg, were individually caged under standard conditions in a temperature- and humidity-controlled room on a 12 h light/dark cycle. Water and food were unrestricted throughout the study. Experimental procedures were conducted using the facilities of the Department of Biomedical Experimental and Clinical Sciences “Mario Serio” and Department of Experimental and Clinical Medicine, and those of CE.S.A.L. (Centro Stabulazione degli Animali da Laboratorio), and NEUROFARBA Department, University of Florence, Italy.
The dose employed was established based on pilot pharmacokinetics studies in rabbits performed historically in naïve rabbits (data not shown). This first part of the study allowed the determination of the therapeutic benefits of selvigaltin following acute treatment, thus validating the model for further investigation of this mechanism in a chronic treatment protocol.
After 1 week of standard diet, animals (n = 12) were randomly assigned to the following groups (Table 1A): • Control rabbits continued to receive a regular diet (RD) for 12 weeks and were treated for 5 days (days 1–5, p.o.), during the last week before culling, with either vehicle; RD+1W Veh group] or GB1211 (30 mg/kg; RD + 1W 30 mg group); • Rabbits received a high fat diet (HFD) for 12 weeks (RD implemented with 0.5% cholesterol and 2.5% vegetable fat) and were treated for 5 days (days 1–5, p.o.), during the last week before culling, with either vehicle (HFD + 1W Veh group) or GB1211 (30 mg/kg; HFD + 1W 30 mg group).
The oral glucose tolerance test (OGTT) was performed in accordance with the published method ([Filippi et al., 2009]). Briefly, after an overnight fast, a 50% glucose solution was orally administered to the animals at a dose of 1.5 g/kg. Blood samples were collected before and 15, 30, and 120 min after glucose loading. The incremental area under the curve (iAUC) was calculated by using GraphPad Prism (GraphPad Software, San Diego, CA). Blood samples for analyses were obtained from the marginal ear vein at week 8 or 12, in all groups. All blood samples were collected in standard conditions, before 10 a.m. after an overnight fasting. The blood was immediately centrifuged at 2,000 g for 20 min at 4°C and collected plasma/serum stored at −80°C until assayed. Plasma glucose, total cholesterol, triglycerides, transaminases (AST and ALT), and gamma-glutamyl transferase levels were measured using an automated system (Cobas 8000, Roche Diagnostics International AG, Rotkreuz, Switzerland). Serum alkaline phosphatase, albumin and total bilirubin levels were measured at IDEXX Laboratories (Kornwestheim, Germany), using an automated system (AU480, Beckman-Coulter, Brea, CA) with kinetic and photometric colour tests as per the following methods: alkaline phosphatase - alkaline buffer solution [2-amino-2-methylpropanol (AMP) in conjunction with p-nitrophenyl phosphate (pNPP)], according to the recommendation of the International Federation for Clinical Chemistry; albumin - the reaction of bromocresol green with albumin produces a colour complex, the absorption of which is measured dichromatically ([Doumas et al., 1971]); total bilirubin - a stabilized diazonium salt, 3,5-dichlorophenyldiazonium tetrafluoroborate (DPD), reacts with bilirubin to formazobilirubin, which absorbs at 570 nm ([Tolman and Rej, 1999]).
Mean arterial blood pressure (MAP) was measured by using a polyethylene catheter inserted into a femoral artery at week 8 or 12, after ketamine (10 mg/kg i.v.) and sodium thiopental (50 mg/kg i.v.) sedation.

rabbit galectin-3 = target: T1, rabbit galectin-3 (Oryctolagus cuniculus, UniProt P47845); experiment: Galectins fluorescence polarization binding assay
T1 construct: made in house
T1 sequence (P47845 whole entry): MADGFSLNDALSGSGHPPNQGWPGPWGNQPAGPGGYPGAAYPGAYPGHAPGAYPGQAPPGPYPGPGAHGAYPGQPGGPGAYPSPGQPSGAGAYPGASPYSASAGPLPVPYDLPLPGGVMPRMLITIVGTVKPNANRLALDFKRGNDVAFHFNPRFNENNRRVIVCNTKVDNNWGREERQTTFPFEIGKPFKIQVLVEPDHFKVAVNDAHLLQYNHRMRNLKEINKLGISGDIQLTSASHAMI
Procedure: Briefly, FP was measured from above in 96-well microtiter plates (black polystyrene; Costar, Corning, NY) using a POLARStar® instrument (BMG Labtech, Ortenberg, Germany). The final sample volume in each well was 200 μL. For inhibition assays, 100 μL of galectin and probe at fixed concentration was mixed with 100 μL of inhibitor solution and FP was measured as described above. Control wells containing only fluorescent probe or fluorescein were included.
All dilutions and measurements were done in PBS with plates incubated at room temperature for 1 h.

How did the tolerability ([1]; 30 mg/kg/day p.o., 5 days) turn out when `OC[C@H]1O[C@H](Sc2cncc(Br)c2)[C@H](O)[C@@H](n2cc(-c3cc(F)c(F)c(F)c3)nn2)[C@H]1O` [selvigaltin] was run?
The tolerability was “well tolerated”.

What about the ALT ([1]; HFD rabbits) of the same compound?
Its ALT is 97.33 ± 54.99 U/L.

What about the AST ([1]; HFD rabbits) of the same compound?
Its AST is 231.67 ± 22.30 U/L.

What about the Glycaemia ([1]; HFD rabbits) of the same compound?
Its Glycaemia is 1.60 ± 0.14 gr/L.

And the “Liver Weight” value ([1]; HFD rabbits)?
Its value is 3.94 ± 0.55 % of BW.

And the MAP ([1]; HFD rabbits)?
Its MAP is 130.83 ± 20.36 mmHg.

What about the “OGTT (iAUC)” value ([1]; HFD rabbits) of the same compound?
The value was 220.33 ± 8.63.

And the “Plasma Cholesterol” value ([1]; HFD rabbits)?
The value was 2064.00 ± 268.00 mg/dL.

What about the “Plasma Triglycerides” value ([1]; HFD rabbits) of the same compound?
Its value is 88.00 ± 42.14 mg/dL.

What about the ALT ([1]; RD rabbits) of the same compound?
The ALT was 36.33 ± 25.11 U/L.

And the AST ([1]; RD rabbits)?
The AST was 29.33 ± 5.86 U/L.

What about the Glycaemia ([1]; RD rabbits) of the same compound?
Its Glycaemia is 1.12 ± 0.17 gr/L.

And the “Liver Weight” value ([1]; RD rabbits)?
The value was 2.40 ± 0.33 % of BW.

What about the MAP ([1]; RD rabbits) of the same compound?
The MAP was 88.75 ± 14.09 mmHg.

And the “OGTT (iAUC)” value ([1]; RD rabbits)?
The value was 165.90 ± 11.12.

And the “Plasma Cholesterol” value ([1]; RD rabbits)?
The value was 21.67 ± 3.51 mg/dL.

What about the “Plasma Triglycerides” value ([1]; RD rabbits) of the same compound?
The value was 56.00 ± 21.28 mg/dL.

What about the Kd (rabbit galectin-3; equivalent to KD of 12 nM, read-out: rabbit galectin-3 KD, equivalent concentration (converted)) of the same compound?
The Kd was 12 nM.

And the Kd (rabbit galectin-3; fluorescence polarization, mean ± SD, n = 3, read-out: KD rabbit galectin-3)?
The Kd was 12 nM.
